Molecules are shown by their SMILES.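 Test compounds were applied to cells in 96-well plates for 48 hours at 5 doses. GI50 = concentration required for 50% inhibition of growth.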 Calls of active or inactive are those of the source. Rule as the data show it: active = GI50 up to about 1.1 µM and inactive = higher.

The results in this text go back to ChEMBL document CHEMBL1201862, “PubChem BioAssay data set” (2004).

Some test systems named below: M19-MEL; DLD-1; LXFL 529; KM-20L2; HOP-18; DMS-273; SNB-78; RXF 631; XF498.
Holding throughout (assay): DTP human tumour cell line panel, 48 h

With `CC(C)CCC[C@@H](C)C1CCC2[C@@H]3CC=C4C[C@@H](OC(=O)CCC(=O)NCC[N+](C)(C)CCCS(=O)(=O)[O-])CC[C@]4(C)C3CC[C@@]21C` (some centres not stated), the GI50 with M19-MEL is 18.5 µM (inactive); in the assay with DLD-1, 21.7 µM (inactive); in the assay on LXFL 529 it was 27.9 µM (inactive); with KM-20L2 it was 81.3 µM (inactive); in the assay with HOP-18 it was 30.5 µM (inactive); in the assay on DMS-273, 14.7 µM (inactive). Also, the GI50 in the assay with SNB-78 was 24.9 µM (inactive).

For `CC(C)(Br)C(Br)CC/C(=C/CBr)CBr.CC(C)(Br)C(Br)CC/C(=C\CBr)CBr` (configuration not stated), the GI50 in the assay on M19-MEL was 2 µM (inactive); in the assay with DLD-1, 3.39 µM (inactive); in the assay with LXFL 529, 3.3 µM (inactive); with HOP-18 it was 18 µM (inactive); with DMS-273, 1.65 µM (inactive); in the assay with SNB-78, 4.46 µM (inactive).

As to `COC12CCC(C(C(=O)c3ccccc3)=C1C(=O)c1ccccc1)C(O)C2` (configuration not stated), the GI50 in the assay on RXF 631, in the assay with M19-MEL, with DLD-1, with LXFL 529, in the assay with DMS-273 and with XF498 was > 100 µM (inactive) each time. The GI50 in the assay with SNB-78 was > 100 µM (inactive).

Consider `COc1cc(/C=C/c2ccc(/C=C/c3cc(OC)c(OC)c(OC)c3)cc2)cc(OC)c1OC`, for which the GI50 in the assay on M19-MEL was 32.9 µM (inactive); in the assay with DLD-1, 42.3 µM (inactive); in the assay with LXFL 529 it was 11.9 µM (inactive); in the assay on KM-20L2 it was 20.8 µM (inactive); with HOP-18, 32.1 µM (inactive); with DMS-273, 14.6 µM (inactive). Also, the GI50 in the assay with XF498 is 17 µM (inactive); in the assay with SNB-78 it was 26.1 µM (inactive).

`COc1ccc(/C(=N\NC(=S)NN)C(c2ccc(OC)cc2)C2C(=O)Oc3ccccc32)cc1` (configuration not stated): the GI50 in the assay on M19-MEL is > 10 µM (inactive); with DLD-1, > 10 µM (inactive); with LXFL 529, 72.4 µM (inactive); in the assay on KM-20L2 it was > 10 µM (inactive); in the assay on HOP-18, 7.18 µM (inactive); in the assay with DMS-273, > 10 µM (inactive). The GI50 in the assay on XF498 and in the assay with SNB-78 was > 10 µM (inactive) each time.

With `CN(C)C(=S)/N=c1\ssc(=S)n1Cc1cccnc1`, the GI50 in the assay on RXF 631 was 4.39 µM (inactive); in the assay on M19-MEL it was 1.51 µM (inactive); in the assay with DLD-1, 3.95 µM (inactive); in the assay on LXFL 529, 6.15 µM (inactive); with KM-20L2, 2.06 µM (inactive); in the assay with HOP-18 it was > 100 µM (inactive). In addition, the 50% growth inhibitory concentration (GI50) in the assay with DMS-273 was 1.09 µM (active); with XF498 it was 3.15 µM (inactive); in the assay on SNB-78, > 100 µM (inactive).

Take `CCc1nnc(S)n1/N=C/c1ccc(-c2ccc([N+](=O)[O-])cc2)o1`: the GI50 with M19-MEL, in the assay with DLD-1, with LXFL 529, with KM-20L2, in the assay with DMS-273 and in the assay on XF498 was > 100 µM (inactive) in each case. In addition, the GI50 with SNB-78 is > 100 µM (inactive).

As to `CCCCN(CCCC)C(=O)C(=O)CC(=O)c1ccc(Br)cc1`, the GI50 in the assay on M19-MEL, in the assay on DLD-1, in the assay with LXFL 529, with KM-20L2, in the assay on HOP-18 and in the assay with DMS-273 was > 100 µM (inactive) each time. Besides, the GI50 in the assay with XF498 and in the assay with SNB-78 was > 100 µM (inactive) each time.

In the case of `CC(O)CCC(=O)c1ccoc1` (configuration not stated), the GI50 with M19-MEL is 5480 µM (inactive); with DLD-1, 7960 µM (inactive); in the assay with LXFL 529 it was > 1000 µM (inactive); with KM-20L2 it was > 9160 µM (inactive); in the assay on HOP-18, 5150 µM (inactive); in the assay on DMS-273, 5450 µM (inactive). Moreover, in the assay with SNB-78, the GI50 is 5500 µM (inactive).

With `Nc1ncnc(NC2C=C(CO)C(O)C2O)c1[N+](=O)[O-]` (configuration not stated), the GI50 in the assay on RXF 631, with M19-MEL, with DLD-1, in the assay on LXFL 529, in the assay on KM-20L2 and in the assay with HOP-18 was > 100 µM (inactive) in each case. Besides, the GI50 in the assay on DMS-273 and with SNB-78 was > 100 µM (inactive) throughout.

`CCC1=C(C)/C(=C/c2[nH]c(C(Br)Br)c(CC)c2C)N=C1C(Br)Br`: the GI50 in the assay with M19-MEL was 20.9 µM (inactive); in the assay with DLD-1 it was 25.6 µM (inactive); in the assay with LXFL 529, 31.9 µM (inactive); with KM-20L2, 41 µM (inactive); in the assay on HOP-18, 84.9 µM (inactive); with SNB-78 it was 33.4 µM (inactive).

For `COC1CCC(OC)C(C2(C3CC(OC)CCC3OC)OC(=O)c3ccccc32)C1` (configuration not stated), the GI50 was > 100 µM (inactive) in the assay on RXF 631; > 100 µM (inactive) with DLD-1; 44.2 µM (inactive) in the assay on KM-20L2; > 100 µM (inactive) in the assay on HOP-18; 22.6 µM (inactive) in the assay with DMS-273; 76.4 µM (inactive) in the assay with XF498. Moreover, the GI50 in the assay on SNB-78 was > 100 µM (inactive).

In the case of `NNC(=O)CNC(=O)c1ccc(Cl)cc1Cl`, the GI50 with M19-MEL, with DLD-1, in the assay with LXFL 529, in the assay on KM-20L2, with HOP-18 and in the assay on DMS-273 was > 100 µM (inactive) throughout. Further, the GI50 in the assay with XF498 is 91.6 µM (inactive).

Turning to `CC12CCC(=O)N1c1cc([N+](=O)[O-])ccc1N2` (configuration not stated), the GI50 in the assay on RXF 631, with M19-MEL, in the assay with DLD-1, with LXFL 529, in the assay on KM-20L2 and in the assay with HOP-18 was > 100 µM (inactive) throughout. Also, the GI50 in the assay with DMS-273, with XF498 and in the assay on SNB-78 was > 100 µM (inactive) in each case.

With `CCOC(=O)C1S/C(=N\c2cccc(Cl)c2C)N=C1C` (configuration not stated), the GI50 is 26.9 µM (inactive) in the assay on M19-MEL; > 10 µM (inactive) in the assay with DLD-1; > 10 µM (inactive) in the assay with LXFL 529; 17.3 µM (inactive) in the assay on KM-20L2; 28.7 µM (inactive) in the assay with HOP-18; 19.7 µM (inactive) in the assay with XF498. Also, in the assay with SNB-78, the GI50 was 33 µM (inactive).

As for `NC(=O)C(N)=O`, the GI50 in the assay with M19-MEL, with DLD-1, with LXFL 529, in the assay with KM-20L2, in the assay with HOP-18 and in the assay on DMS-273 was > 100 µM (inactive) throughout. Besides, the GI50 in the assay with XF498 and with SNB-78 was > 100 µM (inactive) in each case.

`C=CCCCCn1c2ccccc2c2c(C)c3c[n+](C)ccc3c(C)c21`: the GI50 with M19-MEL was 0.296 µM (active); in the assay on DLD-1, 0.607 µM (active); with LXFL 529 it was 0.176 µM (active); with KM-20L2, 0.352 µM (active); in the assay with HOP-18, 0.0912 µM (active); in the assay on SNB-78, 0.387 µM (active).

As to `Cc1cc(C)nc(/C(=N\NC(N)=O)C(=O)Nc2nc3ccc(C)cc3s2)c1`, the GI50 is > 100 µM (inactive) with M19-MEL; > 85.3 µM (inactive) in the assay on DLD-1; > 100 µM (inactive) with LXFL 529; > 92.3 µM (inactive) with KM-20L2; > 100 µM (inactive) in the assay on HOP-18; > 58.1 µM (inactive) in the assay on DMS-273. Further, the GI50 with XF498 and with SNB-78 was > 100 µM (inactive) throughout.

`O=C(OC1CC(n2cc(F)c(=O)[nH]c2=O)OC1CSC(=O)c1ccccc1)c1ccccc1` (configuration not stated): the GI50 in the assay on RXF 631 was 15.1 µM (inactive); with M19-MEL, 26.5 µM (inactive); with DLD-1 it was 33.8 µM (inactive); with LXFL 529 it was 90.8 µM (inactive); with KM-20L2, 18.7 µM (inactive); in the assay with HOP-18, 33.3 µM (inactive). Further, in the assay with SNB-78, the GI50 was 32.1 µM (inactive).

`Cc1c(C(=O)CSc2nc3ccccc3c(=O)n2-c2ccccc2)c(=O)n(-c2ccccc2)n1C`: the GI50 is 52.7 µM (inactive) with M19-MEL; > 100 µM (inactive) with DLD-1; > 100 µM (inactive) in the assay with KM-20L2; 68.2 µM (inactive) in the assay on DMS-273; 43.2 µM (inactive) in the assay on XF498; 45.5 µM (inactive) in the assay on SNB-78.

In the case of `CCCCSC1CCSc2c1ccc1ccccc21` (configuration not stated), the GI50 in the assay with M19-MEL was > 100 µM (inactive); with DLD-1 it was 78.9 µM (inactive); in the assay on KM-20L2, 53.8 µM (inactive); with HOP-18, > 100 µM (inactive); in the assay on XF498, 0.119 µM (active); in the assay with SNB-78, > 100 µM (inactive).

For the molecule `CC(=O)OCCOCNC(=S)N/N=C(\C)c1cnccn1`, the GI50 in the assay with M19-MEL is 15.9 µM (inactive); with DLD-1 it was 34.3 µM (inactive); with LXFL 529 it was 22.9 µM (inactive); in the assay with KM-20L2, 13.2 µM (inactive); in the assay with HOP-18, 25.4 µM (inactive); in the assay on DMS-273 it was 24.5 µM (inactive). Besides, the GI50 with XF498 and with SNB-78 was > 100 µM (inactive) throughout.

As to `N#C/C(=C\c1cc(O)cc(O)c1)C(N)=O`, the GI50 with RXF 631, in the assay with M19-MEL, in the assay with DLD-1, in the assay on LXFL 529, in the assay with KM-20L2 and in the assay with DMS-273 was > 100 µM (inactive) in each case. Also, the GI50 with XF498 and in the assay on SNB-78 was > 100 µM (inactive) throughout.

Turning to `CC(=O)OC1CC2Oc3ccc(C)cc3C(C)(O2)C1=O` (configuration not stated), the GI50 in the assay with M19-MEL was > 100 µM (inactive); in the assay with DLD-1, > 100 µM (inactive); in the assay with HOP-18, > 100 µM (inactive); in the assay on DMS-273, > 100 µM (inactive); in the assay on XF498, 76 µM (inactive).

With `COC1=CC(=O)C2C(C1=O)[C@@H]1c3ccccc3C[C@H]21` (some centres not stated), the GI50 with RXF 631, in the assay with M19-MEL, with DLD-1, in the assay with DMS-273, in the assay with XF498 and in the assay with SNB-78 was > 100 µM (inactive) each time.

Turning to `C[N+](C)(C)CCC(=O)CC[N+](C)(C)C`, the GI50 in the assay on M19-MEL was 23.5 µM (inactive); in the assay with DLD-1 it was 16.2 µM (inactive); in the assay with LXFL 529, 16.1 µM (inactive); with KM-20L2 it was 25.5 µM (inactive); with HOP-18 it was 17.1 µM (inactive); in the assay with DMS-273, 25.6 µM (inactive). Also, the GI50 in the assay on XF498 was 21.2 µM (inactive); with SNB-78 it was 22.3 µM (inactive).
